These are literature values, as cited in patent publication US11207270B2, “Controlled release dosage forms for high dose, water soluble and hygroscopic drug substances” (priority 2010, dated 2021).

In series [1] the test system is patients suffering from disorders of disturbed sleep, including narcolepsy. Particulars: human, in vivo.
For series [2], the system named is non-narcoleptic patients with fibromyalgia.
The subject of series [3] is patients with hyperkinetic movement disorders including ethanol responsive myoclonus and essential tremor. Particulars: 5 patients.
For series [4] the following is noted: given orally, in man.

On to `O=C(O)CCCO` [GHB, gamma-hydroxy butyrate], for which, in series [1], the “Stage 3-4 (slow wave) sleep” value was “increase”, the nocturnal awakenings result is given as “decrease” and the “total nocturnal sleep time” value is on record as “increase”. Besides, the plasma levels entry (immediate release formulation, dose between about 2.25 g and 4.5 g, within 4 hours of ingestion) was “below 10 ug/mL”. Moreover, the Cmax/Cmin ratio entry (two separate immediate release doses, over a six hour period) is “greater than 4”. Further, the “estimates of overall wellness” value in series [2] (before and after treatment) is “significant improvement”. For the same compound, the “subjective assessments of levels of pain and fatigue” value in series [2] (over all 4 weeks of treatment compared to baseline) is reported as “significant improvements”.

On to `O=C([O-])CCCO.[Na+]` [sodium oxybate], for which, in series [3], the “blinded ratings of ethanol responsive myoclonus and tremor” value is on record as “dose-dependent improvements”; the tolerability entry is on record as “tolerated at doses that provided clinical benefit”. Besides, in series [4], the plasma half-life entry is “about 45 minutes”.
